The solubility is the dissolved amount per volume that the medium holds. Lower therefore signals a poorly soluble substance.

The series in a line: Solubility of the compound at pH 7.4 by potentiometric titration method. It counts as physicochemical. The settings on record: buffer.

Molecules are shown by their SMILES. Converted amounts (≈) assume the structure as drawn.

Molecule `Cc1c(F)c(N)cc(C(=O)Nc2cc(-n3cc(C(=O)NC4CCN(C)CC4)nn3)ccc2N2CCN(C)CC2)c1Cl` had a solubility of 343 µM (≈ 201 µg/mL).

`Cc1c(F)c(N)cc(C(=O)Nc2cc(-c3ccc(C(=O)O)cc3)ccc2N2CCN(C)CC2)c1Cl` showed a solubility of 40.5 µM (≈ 20.1 µg/mL).

`Cc1c(F)c(N)cc(C(=O)Nc2cc(-n3cc(C(=O)NCCCN4CCOCC4)nn3)ccc2N2CCN(C)CC2)c1Cl` gave a solubility of 246 µM (≈ 151 µg/mL).

The molecule `Cc1c(F)c(N)cc(C(=O)Nc2cc(-n3cc(C(=O)N4CCOCC4)nn3)ccc2N2CCN(C)CC2)c1Cl` yielded a solubility of 361 µM (≈ 201 µg/mL). As to `Cc1c(F)c(N)cc(C(=O)Nc2cc(-n3cc(C(=O)NC4CCOCC4)nn3)ccc2N2CCN(C)CC2)c1Cl`, the solubility was 95.6 µM (≈ 54.6 µg/mL). With `Cc1c(F)c(N)cc(C(=O)Nc2cc(-c3ccc(C(=O)N4CCOCC4)cc3)ccc2N2CCN(C)CC2)c1Cl` the figure was 48.2 µM (≈ 27.3 µg/mL); with `Cc1c(F)c(N)cc(C(=O)Nc2cc(-n3cc(C(=O)O)nn3)ccc2N2CCN(C)CC2)c1Cl`, 349 µM (≈ 170 µg/mL). Consider `Cc1c(F)c(N)cc(C(=O)Nc2cc(-c3ccc(NC(=O)CCCN)cc3)ccc2N2CCN(C)CC2)c1Cl`, for which the concentration in solution (solubility) came to 199 µM (≈ 110 µg/mL). With `COC(=O)c1cn(-c2ccc(N3CCN(C)CC3)c(NC(=O)c3cc(N)c(F)c(C)c3Cl)c2)nn1` the figure was 41.5 µM (≈ 20.8 µg/mL). The same measure for `COC(=O)c1ccc(-c2ccc(N3CCN(C)CC3)c(NC(=O)c3cc(N)c(F)c(C)c3Cl)c2)cc1`: 3.7 µM (≈ 1.89 µg/mL).

In turn, `Cc1c(F)c(N)cc(C(=O)Nc2cc(-c3ccc(NC(=O)C4CCOCC4)cc3)ccc2N2CCN(C)CC2)c1Cl` yielded a solubility of 126 µM (≈ 73.3 µg/mL).

Regarding `Cc1c(F)c(N)cc(C(=O)Nc2cc(-c3ccc(NC(=O)C4CCN(C)CC4)cc3)ccc2N2CCN(C)CC2)c1Cl`, the solubility stood at 3.9 µM (≈ 2.31 µg/mL).
